Source: ChEMBL document CHEMBL3616397, “Voltage-Gated Sodium Channels: Structure, Function, Pharmacology, and Clinical Indications” (J Med Chem, 2015)

Tests used:
[1] = Selectivity ratio of IC50 for rat NaV1.2 channel expressed in Xenopus laevis oocytes to IC50 for mouse NaV1.6 channel expressed in Xenopus laevis oocytes; format: cell-based
[2] = Selectivity ratio of IC50 for rat NaV1.3 channel expressed in Xenopus laevis oocytes to IC50 for mouse NaV1.6 channel expressed in Xenopus laevis oocytes; format: cell-based
[3] = Selectivity ratio of IC50 for rat NaV1.4 channel expressed in Xenopus laevis oocytes to IC50 for mouse NaV1.6 channel expressed in Xenopus laevis oocytes; format: cell-based
[4] = Selectivity ratio of IC50 for human NaV1.7 channel expressed in Xenopus laevis oocytes to IC50 for mouse NaV1.6 channel expressed in Xenopus laevis oocytes; format: cell-based
[5] = target: T1, Sodium channel protein type 9 subunit alpha (Homo sapiens, UniProt Q15858); experiment: Inhibition of human NaV1.7 channel expressed in HEK293 cells treated for 120 secs by QPatch assay; format: cell-based
Mus musculus = experiment: Toxicity in mouse administered 15 to 20 mins; format: organism-based; details: in vivo
[6] = target: Sodium channel protein type 5 subunit alpha (Homo sapiens, UniProt Q14524); experiment: Inhibition of human NaV1.5 channel expressed in HEK293 cells by patch clamp electrophysiology assay; format: cell-based
[7] = target: T1, Sodium channel protein type 9 subunit alpha; experiment: Inhibition of human NaV1.7 channel expressed in HEK cells by patch clamp electrophysiology assay; format: cell-based, HEK293
[8] = target: T1, Sodium channel protein type 9 subunit alpha; experiment: Inhibition of human NaV1.7 channel by patch clamp electrophysiology assay
[9] = target: Sodium channel protein type 2 subunit alpha (Rattus norvegicus, UniProt P04775); experiment: Inhibition of rat NaV1.2 channel
[10] = target: Sodium channel protein type 3 subunit alpha (Rattus norvegicus, UniProt P08104); experiment: Inhibition of rat NaV1.3 channel
[11] = target: Sodium channel protein type 4 subunit alpha (Rattus norvegicus) (UniProt P15390); experiment: Inhibition of rat NaV1.4 channel at 1 uM relative to control
[12] = target: NaV1.5 (sodium channel protein type 5 subunit alpha) (Rattus norvegicus, UniProt P15389); experiment: Inhibition of rat NaV1.5 channel at 1 uM relative to control
[13] = target: T1, Sodium channel protein type 9 subunit alpha; experiment: Inhibition of human NaV1.7 channel expressed in HEK293 cells by patch clamp electrophysiology assay; format: cell-based
[14] = target: Sodium channel protein type 9 subunit alpha (Rattus norvegicus, UniProt O08562); experiment: Inhibition of rat NaV1.7 channel by two-electrode voltage-clamp method
[15] = target: Sodium channel protein type 1 subunit alpha (Mus musculus, UniProt A2APX8); experiment: Inhibition of mouse NaV1.1 channel by two-electrode voltage-clamp method
[16] = Inhibition of mouse NaV1.2 channel by two-electrode voltage-clamp method
[17] = target: Sodium channel protein type 4 subunit alpha (Mus musculus, UniProt Q9ER60); experiment: Inhibition of mouse NaV1.4 channel by two-electrode voltage-clamp method
[18] = target: Sodium channel protein type 8 subunit alpha (Mus musculus, UniProt Q9WTU3); experiment: Inhibition of mouse NaV1.6 channel by two-electrode voltage-clamp method
[19] = Toxicity in mouse; format: organism-based; details: in vivo
[20] = target: Sodium channel protein type 3 subunit alpha (Homo sapiens, UniProt Q9NY46); experiment: Inhibition of human TTX-sensitive NaV1.3 channel expressed in HEK293 cells by patch clamp electrophysiology assay; format: cell-based
[21] = target: Sodium channel protein type 1 subunit alpha (Homo sapiens, UniProt P35498); experiment: Inhibition of human NaV1.1 channel by patch clamp electrophysiology assay
[22] = target: Sodium channel protein type 2 subunit alpha (Homo sapiens, UniProt Q99250); experiment: Inhibition of human NaV1.2 channel by patch clamp electrophysiology assay
[23] = target: Sodium channel protein type 4 subunit alpha (Homo sapiens, UniProt P35499); experiment: Inhibition of human NaV1.4 channel by patch clamp electrophysiology assay
[24] = target: Sodium channel protein type 8 subunit alpha (Homo sapiens, UniProt Q9UQD0); experiment: Inhibition of human NaV1.6 channel by patch clamp electrophysiology assay
[25] = target: Sodium channel protein type 10 subunit alpha (Homo sapiens, UniProt Q9Y5Y9); experiment: Inhibition of human NaV1.8 channel by patch clamp electrophysiology assay

Sequence of Sodium channel protein type 5 subunit alpha (Q14524 whole entry): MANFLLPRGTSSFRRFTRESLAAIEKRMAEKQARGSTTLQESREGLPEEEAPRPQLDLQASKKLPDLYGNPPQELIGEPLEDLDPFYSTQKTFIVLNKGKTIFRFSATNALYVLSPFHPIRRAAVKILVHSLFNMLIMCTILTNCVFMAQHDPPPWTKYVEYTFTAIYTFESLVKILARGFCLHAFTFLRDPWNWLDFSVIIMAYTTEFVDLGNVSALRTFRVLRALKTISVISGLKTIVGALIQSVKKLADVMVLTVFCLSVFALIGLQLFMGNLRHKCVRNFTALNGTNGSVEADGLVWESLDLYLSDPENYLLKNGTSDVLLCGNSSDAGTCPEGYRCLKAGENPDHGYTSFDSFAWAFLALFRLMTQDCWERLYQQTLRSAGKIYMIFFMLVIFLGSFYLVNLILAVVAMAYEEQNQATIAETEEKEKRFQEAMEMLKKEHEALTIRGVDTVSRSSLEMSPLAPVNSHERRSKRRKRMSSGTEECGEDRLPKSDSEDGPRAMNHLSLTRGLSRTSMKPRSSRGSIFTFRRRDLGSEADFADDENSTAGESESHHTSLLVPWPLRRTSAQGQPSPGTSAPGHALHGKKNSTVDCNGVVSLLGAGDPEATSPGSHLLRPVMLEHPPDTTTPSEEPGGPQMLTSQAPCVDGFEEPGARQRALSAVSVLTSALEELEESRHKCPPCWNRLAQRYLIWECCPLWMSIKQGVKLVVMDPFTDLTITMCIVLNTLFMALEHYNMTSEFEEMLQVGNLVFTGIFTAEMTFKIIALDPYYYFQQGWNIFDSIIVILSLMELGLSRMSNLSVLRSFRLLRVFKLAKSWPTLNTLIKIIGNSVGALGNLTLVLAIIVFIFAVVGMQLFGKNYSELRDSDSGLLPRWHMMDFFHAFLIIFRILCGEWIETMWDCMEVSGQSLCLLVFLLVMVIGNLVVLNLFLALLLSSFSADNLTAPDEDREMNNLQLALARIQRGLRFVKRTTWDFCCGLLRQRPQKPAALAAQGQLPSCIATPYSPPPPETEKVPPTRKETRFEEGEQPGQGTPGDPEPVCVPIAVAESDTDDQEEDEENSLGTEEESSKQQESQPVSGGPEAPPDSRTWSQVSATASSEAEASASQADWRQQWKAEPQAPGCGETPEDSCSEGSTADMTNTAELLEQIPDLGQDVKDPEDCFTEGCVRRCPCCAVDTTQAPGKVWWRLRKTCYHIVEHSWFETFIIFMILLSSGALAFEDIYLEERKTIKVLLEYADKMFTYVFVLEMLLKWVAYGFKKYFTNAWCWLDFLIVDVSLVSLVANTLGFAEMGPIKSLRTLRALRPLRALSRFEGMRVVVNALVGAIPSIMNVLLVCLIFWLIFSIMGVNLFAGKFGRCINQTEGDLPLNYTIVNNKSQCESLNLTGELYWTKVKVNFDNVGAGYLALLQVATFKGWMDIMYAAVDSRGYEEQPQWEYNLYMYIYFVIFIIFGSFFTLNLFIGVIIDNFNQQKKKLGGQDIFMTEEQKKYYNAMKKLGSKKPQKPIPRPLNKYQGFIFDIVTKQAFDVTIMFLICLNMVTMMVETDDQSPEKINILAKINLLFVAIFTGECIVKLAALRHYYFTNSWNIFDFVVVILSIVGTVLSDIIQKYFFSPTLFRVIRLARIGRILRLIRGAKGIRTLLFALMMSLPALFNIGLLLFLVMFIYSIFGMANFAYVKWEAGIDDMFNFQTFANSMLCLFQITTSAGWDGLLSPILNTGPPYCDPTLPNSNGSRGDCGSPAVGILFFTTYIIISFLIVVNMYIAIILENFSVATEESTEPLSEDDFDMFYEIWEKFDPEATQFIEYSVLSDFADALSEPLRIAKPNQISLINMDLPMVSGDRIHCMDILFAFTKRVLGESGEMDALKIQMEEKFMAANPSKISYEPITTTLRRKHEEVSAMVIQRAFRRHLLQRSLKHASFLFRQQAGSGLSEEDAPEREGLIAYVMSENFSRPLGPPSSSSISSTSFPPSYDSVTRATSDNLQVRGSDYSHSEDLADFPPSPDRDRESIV
T1 sequence (Q15858 whole entry): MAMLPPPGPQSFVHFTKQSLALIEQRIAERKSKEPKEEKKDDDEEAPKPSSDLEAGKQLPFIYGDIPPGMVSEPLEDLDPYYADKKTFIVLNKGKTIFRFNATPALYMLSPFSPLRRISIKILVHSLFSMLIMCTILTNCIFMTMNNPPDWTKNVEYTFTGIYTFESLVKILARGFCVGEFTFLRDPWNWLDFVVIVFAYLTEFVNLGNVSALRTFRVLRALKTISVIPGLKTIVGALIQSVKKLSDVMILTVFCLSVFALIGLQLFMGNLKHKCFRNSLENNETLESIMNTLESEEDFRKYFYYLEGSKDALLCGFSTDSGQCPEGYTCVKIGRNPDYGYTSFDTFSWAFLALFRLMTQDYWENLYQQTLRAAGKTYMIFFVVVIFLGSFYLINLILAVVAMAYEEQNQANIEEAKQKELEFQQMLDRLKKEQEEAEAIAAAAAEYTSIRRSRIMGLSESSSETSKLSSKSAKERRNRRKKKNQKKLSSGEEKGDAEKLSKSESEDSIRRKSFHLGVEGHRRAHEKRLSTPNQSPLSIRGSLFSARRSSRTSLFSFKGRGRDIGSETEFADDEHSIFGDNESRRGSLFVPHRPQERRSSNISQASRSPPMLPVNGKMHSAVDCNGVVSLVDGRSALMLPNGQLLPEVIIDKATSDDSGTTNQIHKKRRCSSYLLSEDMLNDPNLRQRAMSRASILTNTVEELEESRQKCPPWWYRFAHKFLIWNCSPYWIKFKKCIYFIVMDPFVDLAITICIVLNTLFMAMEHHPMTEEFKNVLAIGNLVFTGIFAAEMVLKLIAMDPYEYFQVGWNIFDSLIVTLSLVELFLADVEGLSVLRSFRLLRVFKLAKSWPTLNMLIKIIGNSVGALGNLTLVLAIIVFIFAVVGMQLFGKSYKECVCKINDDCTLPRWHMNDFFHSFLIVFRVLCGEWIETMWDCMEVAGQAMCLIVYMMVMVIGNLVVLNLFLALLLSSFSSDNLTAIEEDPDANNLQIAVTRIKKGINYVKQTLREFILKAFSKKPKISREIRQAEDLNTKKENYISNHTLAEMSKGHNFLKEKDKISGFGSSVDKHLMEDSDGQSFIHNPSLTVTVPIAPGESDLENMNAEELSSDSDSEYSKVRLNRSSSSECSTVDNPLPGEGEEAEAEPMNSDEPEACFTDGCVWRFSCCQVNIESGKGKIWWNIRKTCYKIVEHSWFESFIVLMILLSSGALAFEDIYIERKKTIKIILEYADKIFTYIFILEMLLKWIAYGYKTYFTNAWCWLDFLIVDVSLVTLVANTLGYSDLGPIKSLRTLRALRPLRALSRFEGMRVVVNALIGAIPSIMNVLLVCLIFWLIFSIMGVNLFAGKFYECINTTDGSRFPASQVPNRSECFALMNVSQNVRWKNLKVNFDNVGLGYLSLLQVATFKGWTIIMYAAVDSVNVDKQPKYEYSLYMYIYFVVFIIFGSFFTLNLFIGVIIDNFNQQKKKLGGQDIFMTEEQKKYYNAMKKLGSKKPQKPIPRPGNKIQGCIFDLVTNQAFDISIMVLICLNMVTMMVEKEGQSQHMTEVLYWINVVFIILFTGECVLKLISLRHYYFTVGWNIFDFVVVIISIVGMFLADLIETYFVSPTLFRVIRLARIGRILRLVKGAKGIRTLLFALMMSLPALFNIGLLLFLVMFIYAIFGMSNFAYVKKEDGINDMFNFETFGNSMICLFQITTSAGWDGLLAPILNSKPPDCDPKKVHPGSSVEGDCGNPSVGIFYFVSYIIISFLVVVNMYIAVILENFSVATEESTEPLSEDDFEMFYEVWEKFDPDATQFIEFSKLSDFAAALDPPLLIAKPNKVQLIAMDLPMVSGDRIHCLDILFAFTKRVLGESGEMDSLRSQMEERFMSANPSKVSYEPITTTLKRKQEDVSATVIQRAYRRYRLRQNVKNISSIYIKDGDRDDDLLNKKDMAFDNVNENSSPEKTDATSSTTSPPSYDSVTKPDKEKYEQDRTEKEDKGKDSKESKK

N=C1N[C@H]2OC3C4(N1)C2[C@H]1O[C@]3(O)OC([C@H]4O)[C@]1(O)CO
Ratio IC50 [1]: 161 | Ratio IC50 [2]: 44 | Ratio IC50 [3]: 127 | Ratio IC50 [4]: 163

Cc1ccc(OCC(C)C)c(-c2cccc([C@@H]3CC[C@]4(CCN(C)C4=O)N3)c2F)c1
IC50 [5]: 251 nM

CC1=CN=C(C)C1C(=O)O[C@@H](C)C1=CC[C@@]23OCCN(C)C[C@@]12C[C@@H](O)[C@]12O[C@@]4(O)CC[C@@]1(C)[C@H](CC=C32)C4 (stereo partly specified)
LD50 (Mus musculus): 0.002 mg/kg

CN1CC[C@]2(CC[C@@H](c3cc(-c4cccc(OC(F)(F)F)c4)ccn3)N2)C1=O
IC50 [5]: 251 nM

Cc1cc(-c2ccc(C(F)(F)F)cc2)nc([C@@H]2CC[C@]3(CCN(C)C3=O)N2)n1
IC50 [5]: 2000 nM

O=S(=O)(Nc1ncns1)c1cc(F)c(OC[C@@H]2CNCC[C@H]2c2ccc(Cl)c(F)c2)cc1F
IC50 [6]: > 10000 nM

CCCOc1ncccc1-c1cc(C(=O)NS(C)(=O)=O)ccc1Oc1ccc(Cl)cc1
IC50 [7]: 14 nM

CC[C@H](C)[C@H](NC(=O)[C@H](CCC(=O)O)NC(=O)[C@H](Cc1ccc(O)cc1)NC(=O)[C@H](CCCCN)NC(=O)[C@H](CS)NC(=O)[C@H](Cc1c[nH]c2ccccc12)NC(=O)[C@H](CCCNC(=N)N)NC(=O)[C@H](Cc1cnc[nH]1)NC(=O)[C@H](CCCCN)NC(=O)[C@H](CCCNC(=N)N)NC(=O)[C@H](CO)NC(=O)[C@H](CS)NC(=O)[C@@H](NC(=O)[C@H](CC(C)C)NC(=O)[C@H](CC(N)=O)NC(=O)[C@H](CO)NC(=O)[C@H](CO)NC(=O)[C@H](CCCCN)NC(=O)[C@H](CS)NC(=O)[C@H](CS)NC(=O)[C@H](CCC(N)=O)NC(=O)[C@H](CC(=O)O)NC(=O)[C@H](CC(N)=O)NC(=O)[C@H](CO)NC(=O)[C@@H]1CCCN1C(=O)[C@H](CC(N)=O)NC(=O)[C@H](CS)NC(=O)CNC(=O)[C@H](CCCCN)NC(=O)CNC(=O)[C@H](Cc1ccccc1)NC(=O)CNC(=O)[C@H](CC(C)C)NC(=O)[C@H](CS)NC(=O)[C@@H](N)CCC(=O)O)C(C)C)C(N)=O
IC50 [8]: 21 nM | IC50 [9]: 36 nM | IC50 [10]: 375 nM | inhibition [11]: 7.3% | inhibition at 1 µM [12]: 0%

Nc1nc2cc(-c3cc(Cl)ccc3Oc3cc(F)c(S(=O)(=O)Nc4ncns4)cc3F)ccc2[nH]1
IC50 [6]: > 10000 nM | IC50 [13]: 30 nM

N=C(N)NCCC[C@@H]1NC(=O)[C@H](CO)NC(=O)[C@H](Cc2cnc[nH]2)NC(=O)[C@H](CC(=O)O)NC(=O)[C@H](CCCNC(=N)N)NC(=O)[C@@H]2CSSC[C@H](N)C(=O)N[C@H]3CSSC[C@H](NC1=O)C(=O)N[C@H](C(=O)O)CSSC[C@H](NC(=O)[C@H](CC(N)=O)NC3=O)C(=O)N[C@@H](CO)C(=O)N[C@@H](CO)C(=O)N[C@@H](CCCCN)C(=O)N[C@@H](Cc1c[nH]c3ccccc13)C(=O)N2
Kd [14]: 290 nM | Kd [15]: 290 nM | Kd [16]: 5 nM | IC50 [17]: 90 nM | IC50 [18]: 240 nM

COc1ccc(C(=O)O[C@H]2CC[C@@]3(C)[C@@H]4CC[C@H]5[C@]6(O)C[C@H](O)[C@@]7(O)[C@@H](CN8C[C@@H](C)CC[C@H]8[C@@]7(C)O)[C@]6(O)C[C@@]53O[C@]24O)cc1OC [VERATRIDINE]
LD50 [19]: 9 mg/kg

O=C(Nc1ccc(S(=O)(=O)Nc2nccs2)cc1)C(c1ccccc1)c1ccccc1
IC50 [20]: < 20 nM | IC50 [21]: < 20 nM | IC50 [22]: 240 nM | IC50 [23]: > 10000 nM | IC50 [6]: > 10000 nM | IC50 [24]: > 10000 nM | IC50 [25]: > 10000 nM | IC50 [13]: > 10000 nM
